What follows are molecules tested against T1, Human CARM1 (PRMT4) (Homo sapiens, UniProt Q86X55) (assay: CARM1 biochemical assay (3H-SAM Flashplate, peptide substrate)). Details: read-out: CARM1_ IC50.
T1 construct: Flag-CARM1-His; made in house; host or cells: HEK 293F cells (BacMam baculovirus, pFastBacMam)
T1 sequence (Q86X55 2-585 isoform Q86X55-1): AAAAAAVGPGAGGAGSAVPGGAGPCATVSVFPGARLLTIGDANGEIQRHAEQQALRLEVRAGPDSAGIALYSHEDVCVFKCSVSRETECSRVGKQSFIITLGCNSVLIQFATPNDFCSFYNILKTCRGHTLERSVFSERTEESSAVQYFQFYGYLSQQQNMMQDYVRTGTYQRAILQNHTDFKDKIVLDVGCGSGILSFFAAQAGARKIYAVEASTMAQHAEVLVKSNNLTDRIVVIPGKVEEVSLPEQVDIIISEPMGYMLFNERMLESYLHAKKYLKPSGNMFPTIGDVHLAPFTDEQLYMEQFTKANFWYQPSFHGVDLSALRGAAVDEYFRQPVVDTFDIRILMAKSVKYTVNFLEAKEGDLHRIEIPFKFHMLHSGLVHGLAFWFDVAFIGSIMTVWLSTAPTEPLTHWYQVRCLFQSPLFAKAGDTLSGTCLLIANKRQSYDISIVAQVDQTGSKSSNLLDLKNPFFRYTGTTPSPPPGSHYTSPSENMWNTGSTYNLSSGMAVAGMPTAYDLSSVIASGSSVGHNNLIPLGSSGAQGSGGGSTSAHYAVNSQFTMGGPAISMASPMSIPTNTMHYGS
From the text: S-adenosylmethionine (SAM), S-adenosylhomocysteine (SAH), bicine, Tween20, dimethylsulfoxide (DMSO), bovine skin gelatin (BSG), sodium butyrate and Tris(2-carboxyethyl)phosphine hydrochloride solution (TCEP) were purchased from Sigma-Aldrich at the highest level of purity possible. ^3H-SAM was purchase from American Radiolabeled Chemicals with a specific activity of 80 Ci/mmol. 384-well streptavidin Flashplates were purchased from PerkinElmer.
Peptide representative of human histone H3 residues 16-30 was synthesized with an N-terminal linker-affinity tag motif and a C-terminal amide cap by 21st Century Biochemicals. The peptide was purified by high-performance liquid chromatography (HPLC) to greater than 95% purity and confirmed by liquid chromatography mass spectrometry (LC-MS). The sequence was Biot-Ahx-[…]-amide and contained a monomethylated arginine at position 26 (SEQ ID NO.: 14).
Human CARM1 (PRMT4) (NM_199141.1) transcript clone was amplified from an HEK 293 cDNA library, incorporating a flanking 5′ sequence encoding a FLAG tag ([…]) (SEQ ID NO.: 6) fused directly to Ala 2 of CARM1 and 3′ sequence encoding a hexa His sequence ([…]) (SEQ ID NO.: 15) fused directly to Ser 608. The gene sequence encoding isoform1 containing a deletion of amino acids 539-561 was amplified subsequently and subcloned into pFastBacMam (Viva Biotech).
Recombinant baculovirus were generated according to Bac-to-Bac kit instructions (Life Technologies). […] Infections were carried out at 37° C. for 48 hours, harvested by centrifugation, and stored at −80° C. for purification.
Column was washed with 500 mM NaCl in buffer A and Flag-CARM1-His was eluted with 200 ug/ml FLAG peptide in buffer A. Pooled fractions were dialyzed in 20 mM Tris, 150 mM NaCl, 5% glycerol and 1 mM DTT, pH 7.8. The purity of recovered protein was 94.
General Procedure for CARM1 Enzyme Assays on Peptide Substrates.
The assays were all performed in a buffer consisting of 20 mM Bicine (pH=7.6), 1 mM TCEP, 0.005% BSG, and 0.002% Tween 20, prepared on the day of use. Compounds in 100% DMSO (1 ul) were spotted into a polypropylene 384-well V-bottom plates (Greiner) using a Platemate Plus outfitted with a 384-channel head (Thermo Scientific). DMSO (1 ul) was added to Columns 11, 12, 23, 24, rows A-H for the maximum signal control and 1 ul of SAH, a known product and inhibitor of CARM1, was added to columns 11, 12, 23, 24, rows I-P for the minimum signal control. A cocktail (40 ul) containing the CARM1 enzyme was added by Multidrop Combi (Thermo-Fisher). The compounds were allowed to incubate with CARM1 for 30 min at room temperature, then a cocktail (10 ul) containing ^3H-SAM and peptide was added to initiate the reaction (final volume=51 ul). The final concentrations of the components were as follows: CARM1 was 0.25 nM, ^3H-SAM was 30 nM, peptide was 250 nM, SAH in the minimum signal control wells was 1 mM, and the DMSO concentration was 2%. The assays were stopped by the addition of non-radiolabeled SAM (10 ul) to a final concentration of 300 uM, which dilutes the ^3H-SAM to a level where its incorporation into the peptide substrate is no longer detectable. 50 ul of the reaction in the 384-well polypropylene plate was then transferred to a 384-well Flashplate and the biotinylated peptides were allowed to bind to the streptavidin surface for at least 1 hour before being washed once with 0.1% Tween20 in a Biotek ELx405 plate washer. The plates were then read in a PerkinElmer TopCount plate reader to measure the quantity of ^3H-labeled peptide bound to the Flashplate surface, measured as disintegrations per minute (dpm) or alternatively, referred to as counts per minute (cpm).
Where dpm=disintegrations per minute, cmpd=signal in assay well, and min and max are the respective minimum and maximum signal controls.
Where top and bottom are the normally allowed to float, but may be fixed at 100 or 0 respectively in a 3-parameter fit. […]

Compared with `CNCCN(C)Cc1cccc(-c2cc(-c3csc(C)n3)c3cnn(C(C)C)c3n2)c1` [Compound 178], `CNCCN(C)Cc1cccc(-c2cc(-c3c(C)n[nH]c3C)c3cnn(C(C)C)c3n2)c1` [Compound 200] is 2.2-fold higher in IC50: 7.51 nM for the first, 16.7 nM for the second.

`CC(C)n1cc2c(C(=O)NC3CCOCC3)cc(-c3cccc(CN(C)CCN)c3)nc2n1` [Compound 308] and `CNCCN(C)Cc1cccc(-c2cc(C(=O)NC3CCOCC3)c3cnn(CC4CC4)c3n2)c1` [Compound 314] are within 1.5-fold of each other in IC50: 254 nM for the first, 334 nM for the second.

Going from `CNCCN(C)Cc1cccc(-c2cc(CN(C)OC)c3cnn(C(C)C)c3n2)c1` [Compound 264] to `CNCCN(C)Cc1cccc(-c2cc(OCC3CC3)c3cnn(C(C)C)c3n2)c1` [Compound 203], the IC50 falls from 74.1 nM to 19.2 nM (3.9-fold).

Compared with `CNCCN(C)Cc1cccc(-c2cc(C(=O)NC(C)c3ccccc3)c3cnn(C4CCOCC4)c3n2)c1` (stereo not shown) [Compound 248], `CNCCN(C)Cc1cccc(-c2cc(C(=O)NC(C)c3ccccc3)c3cn(C4CCOCC4)nc3n2)c1` (stereo not shown) [Compound 312] is 5.6-fold higher in IC50: 55.5 nM for the first, 311 nM for the second.

Going from `Cc1cc(C)c(CNC(=O)c2cc(-c3cc(CN(C)CCN)ccc3C)cc3c2cnn3C(C)C)c(=O)[nH]1` [Compound 389] to `Cc1cc(C)c(CNC(=O)c2cc(-c3cccc(CNCCN(C)C)c3)nc3c2cnn3C(C)C)c(=O)[nH]1` [Compound 369], the IC50 rises from 232 nM to 501 nM (2.2-fold).

`CNCCN(C)Cc1cccc(-c2cc(C(=O)N3CCSCC3)c3cnn(C(C)C)c3n2)c1` [Compound 322] and `CNCCN(C)Cc1cccc(-c2cc(C(=O)N3CCOCC3)c3cnn(C(C)C)c3n2)c1` [Compound 321] are within 1.5-fold of each other in IC50: 456 nM for the first, 453 nM for the second.

Compared with `CNCCN(C)Cc1cccc(-c2cc(C(=O)NCC3CCOCC3)c3cnn(CC#N)c3n2)c1` [Compound 306], `CNCCN(C)Cc1cccc(-c2cc(C(=O)NCC3CCOCC3)c3cnn(CC4CC4)c3n2)c1` [Compound 285] is 1.7-fold lower in IC50: 243 nM for the first, 139 nM for the second.

`CNCCN(C)Cc1cccc(-c2cc(C(=O)N3CCC(F)C3)c3cnn(C(C)C)c3n2)c1` (stereo not shown) [Compound 313] and `CNCCN(C)Cc1cccc(-c2cc(C(=O)N3CCC(OC)C3)c3cnn(C(C)C)c3n2)c1` (stereo not shown) [Compound 302] are within 1.5-fold of each other in IC50: 312 nM for the first, 233 nM for the second.

First: CNCCN(C)Cc1cccc(-c2cc(C(=O)N[C@@H](C)c3ccccc3)c3cnn(Cc4ccccn4)c3n2)c1 [Compound 225]
Second: CNCCN(C)Cc1cccc(-c2cc(C(=O)N[C@@H](C)c3ccccc3)c3cnn(Cc4cccnc4)c3n2)c1 [Compound 249]
The IC50 of the first is 1.5-fold lower: 38.1 nM for the first, 57.3 nM for the second.

Compared with `CC(C)n1ncc2c(C(=O)NCC3COC3)cc(-c3cccc(CN(C)CCN)c3)nc21` [Compound 204], `CNCCN(C)Cc1cccc(-c2cc(C(=O)NCC3COC3)c3cnn(C(C)C)c3n2)c1` [Compound 219] is 1.6-fold higher in IC50: 19.2 nM for the first, 31.6 nM for the second.

`CNCCN(C)Cc1cccc(-c2cc(-c3ccncc3)c3cnn(C(C)C)c3n2)c1` [Compound 196] and `CNCCN(C)Cc1cccc(-c2cc(Nc3ccncc3)c3cnn(C(C)C)c3n2)c1` [Compound 191] are within 1.5-fold of each other in IC50: 14.3 nM for the first, 12.9 nM for the second.

First: CNCCN(C)Cc1cccc(-c2cc(C(=O)N[C@@H](C)c3ccccc3)c3cn(Cc4ccncc4)nc3n2)c1 [Compound 216]
Second: CNCCN(C)Cc1cccc(-c2cc(C(=O)N[C@@H](C)c3ccccc3)c3cn(Cc4cccnc4)nc3n2)c1 [Compound 236]
The IC50 of the first is 1.5-fold lower: 29.9 nM for the first, 46 nM for the second. The first is the more potent here.

`CNCCN(C)Cc1cccc(-c2cc(C(O)C3CCOCC3)c3cnn(C(C)C)c3n2)c1` (stereo not shown) [Compound 315] and `CNCCN(C)Cc1cccc(-c2cc(C(=O)N(C)C3CCOCC3)c3cnn(C(C)C)c3n2)c1` [Compound 320] are within 1.5-fold of each other in IC50: 368 nM for the first, 410 nM for the second.

First: CNCCN(C)Cc1cccc(-c2cc(-c3cn[nH]c3)c3cnn(C(C)C)c3n2)c1 [Compound 192]
Second: CNCCN(C)Cc1cccc(-c2cc(NCC3CC3)c3cnn(C(C)C)c3n2)c1 [Compound 226]
The IC50 of the first is 3-fold lower: 13.1 nM for the first, 39.5 nM for the second.

Going from `Cc1cc(C)c(CNC(=O)c2cc(-c3ccc(CN(C)CCN4CCCC4)cc3)nc3c2cnn3C(C)C)c(=O)[nH]1` [Compound 364] to `Cc1cc(CNC(=O)c2cc(-c3cccc(CN(C)CCN)c3)nc3c2cnn3C(C)C)no1` [Compound 184], the IC50 falls from 50000 nM to 11.7 nM (4300-fold).

`CNCCN(C)Cc1cccc(-c2cc(C(=O)N(C)CC(F)(F)F)c3cnn(C(C)C)c3n2)c1` [Compound 310] and `CNCCN(C)Cc1cccc(-c2cc(C(=O)N3CCC(F)(F)C3)c3cnn(C(C)C)c3n2)c1` [Compound 299] are within 1.5-fold of each other in IC50: 283 nM for the first, 203 nM for the second.

Going from `CNCCN(C)Cc1cccc(-c2cc(N3CCCCC3)c3cnn(C(C)C)c3n2)c1` [Compound 177] to `CNCCN(C)Cc1cccc(-c2cc(N(CC3CC3)CC3CC3)c3cnn(C(C)C)c3n2)c1` [Compound 218], the IC50 rises from 7.35 nM to 30.9 nM (4.2-fold). The first is the more potent here.

`CNCCN(C)Cc1cccc(-c2cc(C(=O)NCC3CCOCC3)c3cnn(Cc4ccccn4)c3n2)c1` [Compound 318] and `CNCCN(C)Cc1cccc(-c2cc(C(=O)NCC3CCOCC3)c3cnn(Cc4cccnc4)c3n2)c1` [Compound 317] are within 1.5-fold of each other in IC50: 398 nM for the first, 386 nM for the second.

First: CNCCN(C)Cc1cccc(-c2cc(C(=O)N[C@@H](C)c3ccccc3)c3cn(Cc4ccccc4F)nc3n2)c1 [Compound 305]
Second: CNCCN(C)Cc1cccc(-c2cc(C(=O)N[C@@H](C)c3ccccc3)c3cn(Cc4ccccc4)nc3n2)c1 [Compound 213]
The IC50 of the first is 9.4-fold higher: 240 nM for the first, 25.4 nM for the second. The second is the more potent here.

Going from `CNCCN(C)Cc1cccc(-c2cc(C(=O)N3Cc4ccccc4C3)c3cnn(C(C)C)c3n2)c1` [Compound 291] to `CNCCN(C)Cc1cccc(-c2cc(C(=O)NCc3ccccc3Cl)c3cnn(C(C)C)c3n2)c1` [Compound 268], the IC50 falls from 168 nM to 77.3 nM (2.2-fold).

Going from `Cc1c(C(=O)NCC2CCOCC2)cc(-c2cccc(CN(C)CCN)c2)cc1N(C)CC1CC1` [Compound 267] to `CCOC(=O)c1cc(-c2cccc(CN(C)CCNC)c2)nc2c1cnn2CC(F)(F)F` [Compound 316], the IC50 rises from 75.2 nM to 379 nM (5-fold). The first is the more potent here.

`CNCCN(C)Cc1cccc(-c2cc(C(=O)N[C@@H](C)c3ccccc3)c3cn(Cc4ccccn4)nc3n2)c1` [Compound 221] showed an IC50 of 32.6 nM.

Source: patent US20170280720A1, “ARGININE […] INHIBITORS AND USES THEREOF” (EPIZYME, INC., priority 2014, published 2017)
